Molecular target: T1, JMJD2A (Homo sapiens, UniProt O75164)
T1 construct: pNIC28-Bsa4 JMJD2A (encompassing residues 1-359); inferred from Ni-NTA purification and the pNIC28-Bsa4 vector; made in house; host or cells: E. coli BL21 (DE3) Rosetta T1R
T1 sequence (O75164 1-359): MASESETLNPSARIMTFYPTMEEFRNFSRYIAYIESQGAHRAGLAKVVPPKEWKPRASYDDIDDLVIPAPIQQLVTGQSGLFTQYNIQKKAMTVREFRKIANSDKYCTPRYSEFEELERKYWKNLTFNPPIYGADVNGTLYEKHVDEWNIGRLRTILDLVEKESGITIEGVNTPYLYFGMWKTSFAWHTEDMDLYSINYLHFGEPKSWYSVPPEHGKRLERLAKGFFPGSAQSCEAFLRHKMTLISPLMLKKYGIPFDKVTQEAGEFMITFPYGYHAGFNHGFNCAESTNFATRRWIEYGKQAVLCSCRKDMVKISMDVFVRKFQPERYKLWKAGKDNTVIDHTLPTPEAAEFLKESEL
Assay: MALDI-based inhibition assay for JMJD2A
Format: biochemical
Details: ARK(me3)STGGK substrate
Procedure: min, before 1:1 quenching with methanol. 1 uL of the diluted assay mixture was then mixed with 1 uL of α-cyano-4-hydroxycinnamic acid (CHCA, the MALDI-TOF-MS matrix, Sigma-Aldrich) and spotted onto the MALDI-TOF-MS plate before analysis. The CHCA matrix consisted of 10 mg/mL CHCA in 50% MeCN/Milli-Q H2O containing 0.1% TFA. The percentage inhibition was estimated based on the relative intensities of the unhydroxylated substrate and the hydroxylated product observed in the mass spectra. For IC50 determination, eight different concentrations of inhibitors were used (0, 1, 3, 10, 30, 100, 300, 1000 µM); the IC50s were then calculated from the variation in percentage hydroxylation at different inhibitor concentrations, using nonlinear regression, with normalized dose-response fit on […]
MALDI-based inhibition assay for JMJD2A
The assay was performed as previously reported, with modifications.[20] A peptide substrate with the sequence ARK(me3)STGGK (GL Biochem (Shanghai) Ltd) was used in this inhibition assay. The assay was performed in triplicate for each inhibitor, in a final reaction volume of 25 µL. […]
IC50s were then calculated from the variation in percentage demethylation at different

Molecule O=C(O)/C=C/C(=O)NNC(=O)c1cnccc1Cc1ccccc1 [Compound 12] has an IC50 greater than 300 µM.
